Measured values reported in patent US5747301A, “D-sorbitol dehydrogenase” (Roche Vitamins Inc., priority 1995, dated 1998).
Where a name gives a salt, the structure may show the parent alone. Read-outs that look alike come from different tables or passages of the source.

Experiments:
[1] = molecular target: T1, D-sorbitol dehydrogenase (SLDH) (Gluconobacter thailandicus, UniProt Q8KIL1); assay: Effects of metal ions and inhibitors on the SLDH activity; assay type: biochemical, Gluconobacter suboxydans IFO 3255; design: The SLDH was isolated from the membrane fraction of Gluconobacter suboxydans IFO 3255 (DSM 9715); made in house; host or cells: Gluconobacter suboxydans IFO 3255 (DSM 9715), native source (not recombinant): purified from the solubilized membrane fraction; details: for effect on SLDH activity: addition of 0.91 mM; for activity at 960 µM / activity at 1890 µM: read-out: Relative activity (%)
T1 sequence (Q8KIL1 30-740): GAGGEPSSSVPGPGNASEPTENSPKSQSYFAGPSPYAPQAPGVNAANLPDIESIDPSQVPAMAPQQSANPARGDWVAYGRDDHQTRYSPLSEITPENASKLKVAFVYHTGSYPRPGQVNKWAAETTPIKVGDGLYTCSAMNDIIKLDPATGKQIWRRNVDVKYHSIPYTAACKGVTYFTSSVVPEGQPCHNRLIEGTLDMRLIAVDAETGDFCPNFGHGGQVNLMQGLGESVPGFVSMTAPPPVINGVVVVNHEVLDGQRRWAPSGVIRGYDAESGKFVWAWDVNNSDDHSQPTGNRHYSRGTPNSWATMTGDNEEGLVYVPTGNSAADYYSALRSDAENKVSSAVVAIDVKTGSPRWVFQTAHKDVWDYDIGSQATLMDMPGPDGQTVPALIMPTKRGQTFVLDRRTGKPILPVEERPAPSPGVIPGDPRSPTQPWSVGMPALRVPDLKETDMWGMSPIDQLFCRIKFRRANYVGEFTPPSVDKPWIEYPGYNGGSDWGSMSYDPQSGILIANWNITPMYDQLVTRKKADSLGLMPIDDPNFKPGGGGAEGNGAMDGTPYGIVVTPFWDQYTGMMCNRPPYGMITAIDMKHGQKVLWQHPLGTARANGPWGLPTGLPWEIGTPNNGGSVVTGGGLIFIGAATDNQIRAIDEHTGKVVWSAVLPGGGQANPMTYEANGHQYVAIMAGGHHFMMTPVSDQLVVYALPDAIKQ

[2] = molecular target: T1, D-sorbitol dehydrogenase (SLDH); assay: Substrate specificity of the purified D-sorbitol dehydrogenase (DCIP reduction enzyme assay); assay type: biochemical, Gluconobacter suboxydans IFO 3255; design: The SLDH was isolated from the membrane fraction of Gluconobacter suboxydans IFO 3255 (DSM 9715); made in house; host or cells: Gluconobacter suboxydans IFO 3255 (DSM 9715), native source (not recombinant): purified from the solubilized membrane fraction; details: for activity at 100000 µM: read-out: Relative activity
[3] = test system: membrane-bound D-sorbitol dehydrogenase; details: Shinagawa et al. enzyme; cited from earlier work
[4] = molecular target: T1, D-sorbitol dehydrogenase (SLDH); details: conversion of D-sorbitol to L-sorbose
[5] = substrate: OC[C@@H](O)[C@@H](O)[C@H](O)[C@@H](O)CO; assay: Effects of substrate concentration on reaction rate (Km); assay type: biochemical, Gluconobacter suboxydans IFO 3255; details: other: D-sorbitol 0.5 to 80 mM; DCIP as electron acceptor
Description: The velocity of the oxidizing reaction on varying the concentration of D-sorbitol from 0.5 to 80 mM was measured to determine the Km value for D-sorbitol. The apparent Michaelis constant was calculated to be 18 mM with DCIP as an electron acceptor for the reaction.

[6] = metal 0.91 mM, percentage of the reaction rate without metal compounds
[7] = metal 1.79 mM, percentage of the reaction rate without metal compounds
[8] = substrate solutions 100 mM, percent of the reaction rate obtained with D-sorbitol
[9] = inhibitor 0.96 mM, percentage of the reaction rate without inhibitors
[10] = inhibitor 1.89 mM, percentage of the reaction rate without inhibitors

In the case of `O.O.O.O.O=[N+]([O-])[O-].O=[N+]([O-])[O-].[Ca+2]` [Ca(NO3)2.4H2 O], the “Relative activity (%)” value [1, 6] is reported as 96% and the “Relative activity (%)” value [1, 7] is reported as 96%.

For `[Ca+2].[Cl-].[Cl-]` [CaCl2], the “Relative activity (%)” value [1, 6] was 96% and the “Relative activity (%)” value [1, 7] was 96%.

For `O.O.O.O.O.O.[Cl-].[Cl-].[Co+2]` [CoCl2.6H2 O], the “Relative activity (%)” value [1, 6] was 117% and the “Relative activity (%)” value [1, 7] was 108%.

In the case of `O.O.O.O=[N+]([O-])[O-].O=[N+]([O-])[O-].[Cu+2]` [Cu(NO3)2.3H2 O], the “Relative activity (%)” value [1, 6] is reported as 0% and the “Relative activity (%)” value [1, 7] is reported as 0%.

For `O.O.[Cl][Cu][Cl]` [CuCl2.2H2 O], the “Relative activity (%)” value [1, 6] was 0% and the “Relative activity (%)” value [1, 7] was 0%.

For `O=S(=O)([O-])[O-].[Cu+2]` [CuSO4], the “Relative activity (%)” value [1, 6] was 0% and the “Relative activity (%)” value [1, 7] was 0%.

For `[Cu+2]` [Cu^2+], the “effect on SLDH activity” value [1] was “strongly inhibitory”.

For `OC[C@@H](O)[C@@H](O)[C@@H](O)CO` [D-Adonitol], the activity at 100000 µM [2, 8] was 66.6%.

In the case of `OC[C@@H](O)C(O)[C@H](O)CO` [D-Arabitol], the “oxidation by SLDH” value ([2]; substrate solutions 100 mM) is listed as “highly oxidized”, the activity at 100000 µM [2, 8] is listed as 175% and the “oxidation by the enzyme” value [3] is listed as “did not oxidize”.

With `O=C(CO)[C@@H](O)[C@H](O)[C@H](O)CO` [D-Fructose] the activity at 100000 µM [2, 8] was 0%.

`OC[C@H]1OC(O)[C@H](O)[C@@H](O)[C@@H]1O` (stereo partly drawn) [D-Glucose] gave an activity at 100000 µM [2] of 0%.

In the case of `OC[C@@H](O)[C@@H](O)[C@H](O)[C@H](O)CO` [D-Mannitol], the activity at 100000 µM [2] is listed as 49.9% and the “reaction rate relative to D-sorbitol” value [3] is listed as 5%.

In the case of `OC[C@@H](O)[C@@H](O)[C@H](O)[C@@H](O)CO` [D-Sorbitol], the activity at 100000 µM [2] is reported as 100% and the “oxidation by SLDH” value ([2]; substrate solutions 100 mM) is reported as “highly oxidized”.

`OC[C@@H](O)[C@H](O)[C@@H](O)CO` [D-Xylitol] showed an activity at 100000 µM [2, 8] of 0%.

Work on `O=C(O)CN(CCN(CC(=O)O)CC(=O)O)CC(=O)O` [EDTA] yielded an activity at 960 µM [1] of 96.7% and an activity at 1890 µM [1] of 100%.

In the case of `CCO` [Ethanol], the activity at 100000 µM [2] is reported as 0%.

In the case of `O=S(=O)([O-])[O-].O=S(=O)([O-])[O-].O=S(=O)([O-])[O-].[Fe+3].[Fe+3]` [Fe2 (SO4)3.xH2 O], the “Relative activity (%)” value [1, 6] is reported as 0% and the “Relative activity (%)” value [1, 7] is reported as 0%.

With `[Fe+3]` [Fe^3+] the “effect on SLDH activity” value [1] was “strongly inhibitory”.

For `OCC(O)CO` [Glycerol], the “oxidation by SLDH” value ([2]; substrate solutions 100 mM) was “highly oxidized” and the activity at 100000 µM [2, 8] was 117%.

In the case of `O=C(CO)[C@@H](O)[C@H](O)[C@@H](O)CO` [L-Sorbose], the activity at 100000 µM [2, 8] is reported as 0%.

In the case of `CO` [Methanol], the activity at 100000 µM [2] is reported as 0%.

For `O.O.O.O.O.O.[Cl-].[Cl-].[Mg+2]` [MgCl2.6H2 O], the “Relative activity (%)” value [1, 6] was 88% and the “Relative activity (%)” value [1, 7] was 92%.

With `O.O.O.O.[Cl][Mn][Cl]` [MnCl2.4H2 O] the “Relative activity (%)” value [1, 6] was 80% and the “Relative activity (%)” value [1, 7] was 88%.

For `O=C(O)CI` [Monoiodoacetate], the “inhibitory by” value [1] was 75%, the activity at 960 µM [1] was 75% and the activity at 1890 µM [1] was 25%.

`CCN1C(=O)C=CC1=O` [N-Ethylmaleimide] showed an activity at 960 µM [1, 9] of 117% and an activity at 1890 µM [1] of 100%.

For `O.O.O.O.O.O.O.O=[As]([O-])([O-])O.[Na+].[Na+]` [Na2 HAsO4.7H2 O], the “Relative activity (%)” value [1, 9] was 116.7% and the “Relative activity (%)” value [1, 10] was 120.0%.

For `O.O.[Na+].[Na+].[O]=[Mo](=[O])([O-])[O-]` [Na2 MoO4.2H2 O], the “Relative activity (%)” value [1, 6] was 68% and the “Relative activity (%)” value [1, 7] was 96%.

In the case of `[N-]=[N+]=[N-].[Na+]` [NaN3], the “Relative activity (%)” value [1, 9] is reported as 91.7% and the “Relative activity (%)” value [1, 10] is reported as 112.5%.

For `O.O.O.O.O.O.O=S(=O)([O-])[O-].[Ni+2]` [NiSO4.6H2 O], the “Relative activity (%)” value [1, 6] was 88% and the “Relative activity (%)” value [1, 7] was 108%.

With `C=C[C@H]1CN2CC[C@H]1C[C@H]2[C@H](O)c1ccnc2ccc(OC)cc12` [Quinine-HCl, quinine hydrochloride] the activity at 960 µM [1, 9] was 79.2%, the activity at 1890 µM [1, 10] was 75% and the “inhibitory by” value ([1]; inhibitors (Table 7)) was 25%.

With `[F-].[Na+]` [Sodium fluoride] the “Relative activity (%)” value [1, 9] was 100% and the “Relative activity (%)” value [1, 10] was 100%.

In the case of `O=C(O)CF` [Sodium fluoroacetate], the activity at 960 µM [1] is reported as 104% and the activity at 1890 µM [1] is reported as 108%.

Work on `OC[C@H]1O[C@@](CO)(O[C@H]2O[C@H](CO)[C@@H](O)[C@H](O)[C@H]2O)[C@@H](O)[C@@H]1O` [Sucrose] yielded an activity at 100000 µM [2, 8] of 0%.

In the case of `[Cl][Ti]([Cl])([Cl])[Cl]` [TiCl4], the “Relative activity (%)” value [1, 6] is reported as 96% and the “Relative activity (%)” value [1, 7] is reported as 88%.

With `[Cl-].[Cl-].[Zn+2]` [ZnCl2] the “Relative activity (%)” value [1, 6] was 56% and the “Relative activity (%)” value [1, 7] was 32%.

For `O.O.O.O.O.O.O.O=S(=O)([O-])[O-].[Zn+2]` [ZnSO4.7H2 O], the “Relative activity (%)” value [1, 6] was 44% and the “Relative activity (%)” value [1, 7] was 40%.

In the case of `OC[C@@H](O)[C@@H](O)CO` [meso-Erythritol], the “oxidation by SLDH” value ([2]; substrate solutions 100 mM) is listed as “highly oxidized”, the activity at 100000 µM [2, 8] is listed as 172% and the “oxidation by the enzyme” value [3] is listed as “did not oxidize”.

In the case of `O=O` [oxygen], the “use as electron acceptor” value [4] is reported as “does not utilize oxygen as an electron acceptor”.

With MnSO4.4~6H2 O the “Relative activity (%)” value [1, 6] was 88% and the “Relative activity (%)” value [1, 7] was 88%.

B1: D-sorbitol dehydrogenase (SLDH) (Gluconobacter thailandicus) (protein)
chain: GAGGEPSSSVPGPGNASEPTENSPKSQSYFAGPSPYAPQAPGVNAANLPDIESIDPSQVPAMAPQQSANPARGDWVAYGRDDHQTRYSPLSEITPENASKLKVAFVYHTGSYPRPGQVNKWAAETTPIKVGDGLYTCSAMNDIIKLDPATGKQIWRRNVDVKYHSIPYTAACKGVTYFTSSVVPEGQPCHNRLIEGTLDMRLIAVDAETGDFCPNFGHGGQVNLMQGLGESVPGFVSMTAPPPVINGVVVVNHEVLDGQRRWAPSGVIRGYDAESGKFVWAWDVNNSDDHSQPTGNRHYSRGTPNSWATMTGDNEEGLVYVPTGNSAADYYSALRSDAENKVSSAVVAIDVKTGSPRWVFQTAHKDVWDYDIGSQATLMDMPGPDGQTVPALIMPTKRGQTFVLDRRTGKPILPVEERPAPSPGVIPGDPRSPTQPWSVGMPALRVPDLKETDMWGMSPIDQLFCRIKFRRANYVGEFTPPSVDKPWIEYPGYNGGSDWGSMSYDPQSGILIANWNITPMYDQLVTRKKADSLGLMPIDDPNFKPGGGGAEGNGAMDGTPYGIVVTPFWDQYTGMMCNRPPYGMITAIDMKHGQKVLWQHPLGTARANGPWGLPTGLPWEIGTPNNGGSVVTGGGLIFIGAATDNQIRAIDEHTGKVVWSAVLPGGGQANPMTYEANGHQYVAIMAGGHHFMMTPVSDQLVVYALPDAIKQ
notes: The SLDH was isolated from the membrane fraction of Gluconobacter suboxydans IFO 3255 (DSM 9715); made in house; host or cells: Gluconobacter suboxydans IFO 3255 (DSM 9715), native source (not recombinant): purified from the solubilized membrane fraction
In the case of B1, the Km [5] is reported as 18 mM.
